Results: patent US20140377216A1, “ANTICANCER FUSION PROTEIN” (ADAMED SP. Z.O.O., priority 2011, published 2014)

Columns and labels:
[1] = system: human colon cancer HCT116; assay: Colon cancer model, Experiment A1: HCT116 xenograft; assay type: in vivo, Crl:SHO-PrkdcscidHrhr mice; details: 65 mg/kg i.v. six times every second day, 24th day
Method: (§1) Tumor size was measured using electronic calliper, tumor volume was calculated using the formula: (a^2×b)/2, where a=shorter diagonal of the tumor (mm) and b=longer diagonal of the tumor (mm). Inhibition of tumor growth was calculated using the formula:
(§2) TGI[%](Tumor growth inhibition)=(WT/WC)×100−100%
(§3) wherein WT is the average tumor volume in the treatment group, and WC is the average tumor volume in the control group.
On day 0 Crl:SHO-Prkdc^scidHr^hr mice were grafted subcutaneously (s.c.) in the right flank region with 5×10^6 of HCT116 cells suspended in 0.1 ml of the 3:1 mixture HBSS buffer:Matrigel using syringe with a 0.5×25 mm needle (Bogmark). When tumors reached the size of 71-432 mm^3 (day 13), mice were randomized to obtain the average size of tumors in the group of ˜180 mm^3 and assigned to treatment groups. The treatment groups were administered with the preparations of fusion protein of the invention of Ex. 16^b (90 mg/kg) and rhTRAIL114-281 (65 mg/kg) as a comparison. The preparations were administered intravenously (i.v.) six times every second day. The control group received formulation buffer.
When an experimental group reached the average tumor size of −1000 mm^3, mice were sacrificed by cervical dislocation.

human colon cancer SW620 = assay: Colon cancer model, Experiment B: SW620 xenograft; assay type: in vivo, Crl:SHO-PrkdcscidHrhr mice; details: 30 mg/kg i.v. 6 times every second day, 31 day
Method: as §1, §2, §3
On day 0 Crl:SHO-Prkdc^scidHr^hr mice were grafted subcutaneously (s.c.) in the right side with 5×10^6 of SW620 cells suspended in 0.1 ml of the mixture HBSS:Matrigel 3:1 using syringe with a needle 0.5×25 mm (Bogmark). On the 17 day of the experiment mice were randomized to obtain the average size of tumors in the group of ˜320 mm^3 and assigned to treatment groups. The treatment groups were administered with the preparation of fusion protein of the invention of Ex. 16^a (20 mg/kg) and rhTRAIL114-281 (30 mg/kg) as a comparison against formulation buffer (19 mM NaH2PO4, 81 mM Na2HPO4, 50 mM NaCl, 5 mM glutathione, 0.1 mM ZnCl2, 10% glycerol, pH 7.4) as a control. The preparations were administered intravenously (i.v) 6 times once daily every second day. On the 31 day of the experiment mice were sacrificed by disruption of the spinal cord.

rhTRAIL114-281: recombinant human soluble TRAIL, amino acids 114-281 of hTRAIL, used as comparative reference
TGI (tumor growth inhibition) relative to the control [1]: 37.9% | TGI (tumor growth inhibition) relative to the control (human colon cancer SW620): −9%
